Key:
[1] = system: erythrocytes; experiment: Visual evaluation of hemolysis (time until a clear solution is observed); format: cell-based
Experimental: Whether the conditions for differential hemolysis are appropriate can be easily and preferably determined by using the following standardized procedure. A whole blood sample with a hematocrit of 40 is diluted 1:10 and then mixed 1:1 with the candidate hemolysis reagent. The efficacy of a reagent for bringing about differential hemolysis is seen visually. Upon lysis of the erythrocytes the mixture becomes clear. If precipitation of sample constituents occurs the sample becomes turbid or viscous or both.
As indicated above, the conditions used in a method of differential hemolysis according to the present invention can easily be assessed visually. If a whole blood sample is incubated with an appropriate candidate reagent for differential hemolysis the minimal concentration required to hemolyze red blood cells can be recognized as the concentration rendering the turbid blood sample transparent or clear. The highest possible concentration is the one still leading to a transparent and non-viscous sample.
(§1) Solution A: Fresh EDTA-stabilized whole blood is diluted with 0.15 molar sodium chloride solution in the ratio 1:10 (50 μL EDTA-blood plus 450 μL sodium chloride solution).
In the case of the addition of a second anion, e.g., iodine (1-Butyl-3-methylpyridiniumchloride/KJ) the stated salt is added in an equimolar amount.
Hemolysate is prepared by mixing solution A and B in equal volumes, e.g., 500 μL solution A plus 500 μL solution B.
After mixing the hemolysate is inspected visually for turbidometry and clearness immediately after mixing, after 1 minute, 2, 5, 6, 7, 20 and 40 minutes. The time until a clear solution is observed is recorded.

[2] = cited from earlier work
[3] = in vivo; cited from earlier work
[4] = system: erythrocytes; experiment: Microscopic evaluation of hemolysis, May-Grünwald staining; format: cell-based
Experimental: Solution A: Fresh EDTA-stabilized whole blood is diluted with 0.15 molar sodium chloride solution in the ratio 1:10 (50 μL EDTA-blood plus 450 μL sodium chloride solution). Solution B: […] Hemolysate is prepared by mixing solution A and B in equal volumes, e.g., 20 μL solution A plus 20 μL solution B After mixing of the hemolysate a droplet is smeared on a microscope slide, air dried at room temperature and stained with May-Grünwald staining reagent (Merck Cat. No. 1.01424 May-Grünwald's Eosin Methylene Blue Solution). […] Microscopy is performed by oil immersion light microscopy (magnification ×630).

[5] = system: EDTA-anticoagulated whole blood; experiment: Processing of EDTA-anticoagulated whole blood in a tube with reagent for differential hemolysis (time to optically clear lysate); format: cell-based
Experimental: This reagent for differential hemolysis thus has a concentration of about 25% BMPBF4. […] 250 microliter of EDTA-anticoagulated whole blood is pipetted into a vial containing 5 milliliter of this lysis reagent. For hemolysis the content of the tube is gently mixed by shaking. An optically clear lysate is obtained within five minutes. The lysate is stored at 4° C. Stability of the lysate is inspected after 1, 4 and 7 days by visual inspection. […] This reagent for differential hemolysis thus has a concentration of about 2% Me-octPCl. 250 microliter of EDTA-anticoagulated whole blood is pipetted into a vial containing 5 milliliter of this lysis reagent. For hemolysis the content of the tube is gently mixed by shaking. An optically clear lysate is obtained within five minutes. The lysate is stored at 4° C. Stability of the lysate is inspected after 1, 4 and 7 days by visual inspection. […] This reagent for differential hemolysis has a concentration of about 15% Me-octPCl. […] For hemolysis the content of the tube is gently mixed by shaking. An optically clear lysate is obtained within five minutes. The lysate is stored at 4° C. Stability of the lysate is inspected after 1, and 2 days by visual inspection. […] This reagent for differential hemolysis has a concentration of about 10% COMPCl. […]

[6] = system: erythrocytes; experiment: Microscopic evaluation of hemolysis, Trypane blue staining; format: cell-based; conditions: 1 in 10 diluted whole blood, reagent 25%
Experimental: The integrity of red blood cells can for example be easily assessed by appropriate life stains. In a preferred embodiment according to the present invention trypane blue is used in order to assess the integrity of a red blood cell membrane. […] The membrane integrity of a red blood cell is easily assessed under the microscope after staining a sample with trypane blue. The percentage of disrupted red blood cells is calculated by counting intact red blood cells before and after the treatment, by then dividing the first number by the latter number and by then multiplying this value by 100. Red blood cells that are solubilized are referred to as lyzed red blood cells or as lyzed erythrocytes.
as §1
Solution B: A solution of the hemolysis reagent in 0.15 molar sodium chloride is prepared where the concentration of the hemolysis reagent is twice as high as the desired final concentration in the hemolysate, e.g., to get a final concentration of 25% of 1-Butyl-4-methylpyridinium tetrafluoroborate a solution of 50% ([…] plus 50 mL 0.15 molar sodium chloride in water) is prepared. […]

[7] = final concentration 25% (weight/volume), whole blood final dilution 1:20
[8] = final concentration 12.5% (weight/volume)

In the case of CCCCn1cc[n+](C)c1.F[B-](F)(F)F [1-Butyl-3-methyl-imidazolium tetrafluoroborate], the “clear after” value [1, 7] is reported as 20 min.
For C=CC[C@@H]1/C=C(\C)C[C@H](C)C[C@H](OC)[C@H]2O[C@@](O)(C(=O)C(=O)N3CCCC[C@H]3C(=O)O[C@H](/C(C)=C/[C@@H]3CC[C@@H](O)[C@H](OC)C3)[C@H](C)[C@@H](O)CC1=O)[C@H](C)C[C@@H]2OC [Tacrolimus, tacrolimus], the “potency relative to cyclosporin in vitro” value [2] is given as “up to 100 times” and the therapeutic trough concentration [3] is given as 5 to 20 µg/L.
For O [water, reference compound], the “Light microscopy of hemolyzed whole blood, May-Grünwald staining” value ([4]; 1 in 10 diluted whole blood hemolyzed with water) was “Erythrocyte membranes and nuclei are visible”.
In the case of CCCCCCCC[n+]1ccccc1.[Cl-] [N-Octylpyridiniumchloride], the “clear after” value [1, 7] is reported as 2 min.
For COc1c(C)c2c(c(O)c1C/C=C(\C)CCC(=O)OCCN1CCOCC1)C(=O)OC2 [MMF, mycophenolate mofetil], the therapeutic trough concentration [3] is listed as 1000 to 3500 µg/L.
For CCCCCC[n+]1ccccc1.[Cl-] [1-Hexylpyridiniumchloride], the “clear after (min.)” value [1, 8] was “turbid” and the “clear after” value [1, 7] was 7 min.
For CCCCCCCCOC[n+]1cccc(C(N)=O)c1.[Cl-] [3-Carbamoyl-1-octyloxymethyl pyridiniumchloride], the “clear after (min.)” value ([1]; final concentration 1.5% (weight/volume)) was “immediately”, the “clear after (min.)” value ([1]; final concentration 6.25% (weight/volume)) was “immediately” and the “clear after (min.)” value [1, 8] was “immediately”. The “time until optically clear lysate is obtained” value ([5]; 50 microliter blood into 130 microliter reagent, about 10% COMPCl) was “five”.
For CCCCCCCCOS(=O)(=O)[O-].CCCCn1cc[n+](C)c1 [l-Butyl-3-methyl-imidazoliumoctylsulfate, 1-Butyl-3-methyl-imidazoliumoctylsulfate], the “clear after (min.)” value [1, 7] was “immediately”.
For CCCC[n+]1cccc(C)c1.[Cl-] [1-Butyl-3-methyl pyridiniumchloride, 1-Butyl-3-methylpyridiniumchloride], the “clear after (min.)” value [1, 7] was “turbid”.
In the case of CCCCCCCC[N+]1(C)CCCC1.[Cl-] [1-Methyl-1-octyl pyrrolidiniumchloride], the “clear after (min.)” value ([1]; final concentration 2.5% (weight/volume)) is reported as “turbid” and the “clear after (min.)” value [1, 7] is reported as “immediately”.
For CO[C@H]1C[C@@H]2CC[C@@H](C)[C@@](O)(O2)C(=O)C(=O)N2CCCC[C@H]2C(=O)O[C@H]([C@H](C)C[C@@H]2CC[C@@H](O)[C@H](OC)C2)CC(=O)[C@H](C)/C=C(\C)[C@@H](O)[C@@H](OC)C(=O)[C@H](C)C[C@H](C)/C=C/C=C/C=C/1C [sirolimus, rapamycin], the therapeutic trough concentration [3] is listed as 5 to 15 µg/L.
In the case of CCCC[n+]1ccc(C)cc1.F[B-](F)(F)F [1-Butyl-4-methylpyridinium tetrafluoroborate], the “clear after (min.)” value ([1]; final concentration 6% (weight/volume)) is reported as “Turbid”, the “clear after” value [1, 8] is reported as 40 min and the “clear after” value [1, 7] is reported as 20 min. For the same molecule, the “Light microscopy of hemolyzed whole blood, May-Grünwald staining” value ([4]; 1 in 10 diluted whole blood, reagent 25%) was “No erythrocytes or membranes are left, nuclei are still intact”, the “Light microscopy of hemolyzed whole blood, Trypane blue staining” value ([6]; 2.5 min incubation time) was “Only few residual erythrocytes are left” and the “Light microscopy of hemolyzed whole blood, Trypane blue staining” value ([6]; 15 min incubation time) was “No erythrocytes or membranes are left”. For the same molecule, the “time until optically clear lysate is obtained” value ([5]; 250 microliter blood into 5 milliliter reagent, about 25% BMPBF4) was “five”.
